Test results: publication PMC7733455, “A novel multistage antiplasmodial inhibitor targeting Plasmodium falciparum histone deacetylase 1” (Cell Discovery, 2020)
Like-named read-outs stand apart in the source and are kept apart here.

Legend:
[1] = test system: parasite histone H3 acetylation; experiment: Western blot of histone H3 acetylation in parasites; format: cell-based, Plasmodium falciparum; conditions: 4 h treatment of asynchronous 3D7; quisinostat/JX21108 5 and 20 nM, SAHA 500 nM
Protocol: Then the parasite samples were harvested and treated with 0.15% saponin to remove the RBC proteins and sonicated in 1% NP40 lysis buffer. After centrifugation at 12,000× g for 15 min, the supernatant was resuspended in a routine SDS loading buffer. Parasite proteins were separated by 10% SDS-PAGE and transferred onto PVDF membranes (Millipore). […] A2348) followed by a secondary antibody conjugated with HRP (Jackson Immuno Research Laboratories). The chemiluminescent HRP substrate Immobilon Western Kit (Millipore) was used for signal detection.

[2] = test system: P. falciparum clinical isolates 6218 and 6320; experiment: Ring-stage survival assay (RSA), isolates 6218 and 6320; format: cell-based, Plasmodium falciparum; conditions: 700 nM, 6 h exposure, synchronized rings of isolates 6218 and 6320
Protocol: An RSA was performed as described previously[65] to evaluate the activity of JX21108 against the artemisinin- and piperaquine-resistant P. falciparum clinical isolates 6218 and 6320[43]. Briefly, parasites were highly synchronized at 0–3 hpi by a 60%/40%-Percoll gradient[66] followed by 5% D-sorbitol[67] treatment after 3 h. The parasite suspension (0.5%–1% parasitemia, 2% hematocrit) was incubated with compounds at 700 nM in a total volume of 2 mL in a 48-well plate for 6 h. After that, the culture mixture was washed three times with 15 mL of CM before another 66 h of cultivation with CM. A Giemsa-stained blood smear was made after cultivation. Parasitemia was counted from at least 10,000 RBCs by microscopy. The survival rate was calculated as the percentage of that in DMSO control. DHA at a concentration of 700 nM served as a positive control.

P. falciparum GB4 = experiment: 3-day SYBR Green I GIA, strain GB4; format: cell-based; conditions: Plasmodium falciparum; GB4 resistant to chloroquine; read-out: Resistant isolates EC50, GB4
Protocol: (§1) A 3-day SYBR Green I inhibition EC50 assay was performed as described previously. Briefly, highly synchronized ring-stage parasites by 5% sorbitol (1% parasitemia and 2% hematocrit) were incubated in a 96-well plate with compounds in a total volume of 200 μL. […] The parasites were cultured for 72 h before SYBR Green I staining as described above. The EC50 was calculated by GraphPad Prism. DHA was used as a positive control, and the final concentration of DMSO was 1%.

[3] = test system: P. falciparum isolate 6320; experiment: 3-day SYBR Green I GIA, field isolate 6320; format: cell-based; conditions: Plasmodium falciparum; artemisinin- and piperaquine-resistant isolate; read-out: Resistant isolates EC50, 6320
Protocol: as §1

P. falciparum C2A = experiment: 3-day SYBR Green I GIA, strain C2A; format: cell-based; conditions: Plasmodium falciparum, read-out: Resistant isolates EC50, C2A
Protocol: as §1

P. falciparum 3D7 [4] = experiment: Ring-stage survival assay (RSA), sensitive strain 3D7; format: cell-based, Plasmodium falciparum; conditions: 700 nM
[5] = test system: P. falciparum isolate 6218; experiment: 3-day SYBR Green I GIA, field isolate 6218; format: cell-based; conditions: Plasmodium falciparum; artemisinin- and piperaquine-resistant isolate; read-out: Resistant isolates EC50, 6218
Protocol: as §1

P. falciparum CP286 = experiment: 3-day SYBR Green I GIA, strain CP286; format: cell-based; conditions: Plasmodium falciparum; CP286 resistant to pyrimethamine and chloroquine; read-out: Resistant isolates EC50, CP286
Protocol: as §1

P. yoelii = experiment: In vivo efficacy of the five HDAC inhibitor hits in rodent malaria model (Fig. S1c); parameters: species or system Plasmodium yoelii in BALB/c mice; conditions: i.p., three mice per group
Protocol: Fimepinostat Pinometostat
Sodium Phenylbutyrate 500 50
Givinostat hydrochloride monohydrate
Supplementary Fig. S1 Screening of epigenetic inhibitors against blood-stage P. […]
nM and 500 nM tested compounds compared to that with the DMSO control. b The EC50 values of five compounds against Pf3D7, HepG2 and 293T cells; SIa,EC 50 HepG2/ […]
of P. yoelii in BALB/c mice. Three mice were used in each group. Parasitemia was calculated from at least 5,000 red blood cells (RBCs) by microscopy . Blank, untreated group; PPQ, piperaquine phosphate. The administration route was intraperitoneal (i.p.). The data of a and b are from three independent biological replicates in […]
(also on this page, place not known: BET BromodominHDMHMT […] HDAC SI ±3.2 ±24 ±125 % Parasitemia microscopy. a) […]

[6] = Pharmacokinetic assay in mice; format: in vivo, BALB/c mice; conditions: 5 mg/kg i.p.
Protocol: Five female BALB/c mice (6–8 weeks, 18–19 g) per group were purchased from JH Laboratory Animal Co., Ltd. All mice were raised at controlled temperature and humidity and had free access to food and water. Compounds were dissolved in 5% DMSO and diluted with 20% aqueous 2-hydroxypropyl-β-cyclodextrin solution to a stock concentration of 0.5 mg/mL. Each mouse was i.p. injected with the compound solution at a dose of 5 mg/kg. Blood samples collected by anticoagulant (K2EDTA)-containing tubes at 0.25, 0.5, 1, 2, 4, 8, and 24 h after injection were centrifuged at 2000× g at 4 °C for 5 min to obtain plasma. LC-MS/MS analysis of samples was carried out by an ACQUITY UPLC HSS T3 1.8-μm column. The mobile phase was a mixture of phase A (0.1% formic acid in water) and phase B (0.1% formic acid in acetonitrile), which ran in gradient mode at a flow rate of 0.6 mL/min at 60 °C. Mass spectra were obtained on an API6500 triple quadrupole equipped with an ESI source. Propranolol was used as an internal standard. The plasma concentrations of the compounds were analyzed, and the pharmacokinetic parameters were calculated via WinNonlin.

[7] = test system: asynchronous 3D7 parasites; experiment: Time- and dose-dependent parasite inhibition assay; format: cell-based, Plasmodium falciparum
Protocol: Asynchronous parasites (2% parasitemia, 4% hematocrit) were treated with the tested compounds at a concentration of 10, 30, 60, or 100 nM, respectively. At 3, 6, 12, and 24 h post treatment, parasitemia of each sample was detected by flow cytometry to investigate the time-dependent activity. Parasites from the same treatment were further washed to remove compounds, and parasitemia was diluted 1:40 by new RBCs into CM for an additional 4 days of culture. Parasitemia of each sample was detected by flow cytometry as described above to investigate the dose-dependent activity. DMSO was used as a blank control.

[8] = In vitro cytotoxicity analysis (CellTiter-Glo), HepG2; conditions: human, HepG2 cells
Protocol: (§2) In all, 1% DMSO was used as a negative control. The inhibition of each drug was normalized to that of the DMSO control. EC50 was calculated by GraphPad Prism. Three independent assays with two technical replicates each time were conducted in this experiment.

HepG2 cells = experiment: as above
Protocol: as §2

[9] = In vitro cytotoxicity analysis (CellTiter-Glo), 293T; conditions: human, 293T cells, Cytotoxicity EC50, 293T, 72 h, CellTiter-Glo
Protocol: as §2

293T cells = experiment: as above
Protocol: as §2

[10] = Liver microsome metabolism assay, mouse; format: in vitro ADME
Protocol: Liver microsomes (0.5 mg/mL) were purchased from Corning. Ketanserin was selected as a positive control. The tested compounds were first dissolved in DMSO to a concentration of 10 mM and then diluted to 0.5 mM with acetonitrile. Liver microsome buffer was used to dilute the compounds to a working concentration of 1.5 µM, 30 µL of which was mixed with 15 µL of 6 mM NADPH at 37 °C. At 0, 5, 15, 30, and 45 min after incubation, 135 µL of acetonitrile was added to quench the reaction. The mixture was shaken on a vortex mixer (IKA, MTS 2/4) for 10 min at 600 rpm/min and then centrifuged at 5594× g for 15 min (Thermo Multifuge×3R). The supernatant was diluted 1:1 into distilled water, and analyzed by LC-MS/MS.

P. falciparum 3D7 [11] = experiment: 3-day SYBR Green I growth inhibition assay (GIA), strain 3D7; format: cell-based, Plasmodium falciparum; conditions: Plasmodium falciparum, 3D7, 72 h, read-out: Antiplasmodial activity EC50, 3D7
Protocol: as §1

hSirt2 = target: T1, hSirt2 (Homo sapiens, UniProt Q8IXJ6); experiment: Human HDAC inhibition assay, hSirt2; format: biochemical; conditions: performed only once; read-out: Inhibitory Activity IC50, hSirt2
T1 construct: purchased BPS Bioscience 50013
Protocol: SAHA and suramin were used as positive controls. The tested compounds were dissolved into 20 mM stock in 100% DMSO. […] Ten microliters of trypsin and Ac-peptide substrate/Tris buffer solution were added to start the reaction, followed by a 1-h incubation at room temperature for HDACs 1–3 and 6. Ten microliters of Ac-peptide substrate/Tris buffer solution was added to start the reaction, followed by a 4-h incubation at room temperature and a further 2-h incubation with trypsin solution for HDAC8 and Sirt 2. […] This experiment was performed only once.

P. falciparum Dd2 = experiment: 3-day SYBR Green I GIA, multidrug-resistant strain Dd2; format: cell-based, Plasmodium falciparum
Protocol: as §1

[12] = female, BALB/c, mouse, plasma, ip
[13] = 3-day SYBR Green I GIA, drug-sensitive strain 3D7
[14] = Plasmodium falciparum, 72 h, 3-day SYBR Green I GIA, multidrug-resistant strain Dd2, read-out: Antiplasmodial activity EC50, Dd2

T1 sequence (Q8IXJ6 whole entry): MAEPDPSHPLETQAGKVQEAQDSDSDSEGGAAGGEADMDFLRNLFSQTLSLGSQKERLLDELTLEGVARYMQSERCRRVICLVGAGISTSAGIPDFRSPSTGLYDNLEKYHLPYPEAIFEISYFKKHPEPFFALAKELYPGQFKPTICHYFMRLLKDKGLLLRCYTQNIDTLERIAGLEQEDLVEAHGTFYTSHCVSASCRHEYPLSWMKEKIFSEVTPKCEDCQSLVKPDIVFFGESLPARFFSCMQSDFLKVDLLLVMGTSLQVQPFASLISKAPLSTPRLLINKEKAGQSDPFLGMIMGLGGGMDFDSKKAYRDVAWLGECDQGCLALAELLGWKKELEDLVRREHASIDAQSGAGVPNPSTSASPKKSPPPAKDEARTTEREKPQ

## O=C(CCCCCCC(=O)Nc1ccccc1)NO [SAHA]
[1]
  pan-acetylation levels of parasite histone H3: greatly increased the pan-acetylation levels of parasite histone H3

## C[C@H]1[C@@H](O)O[C@@H]2O[C@@]3(C)CC[C@H]4[C@H](C)CC[C@@H]1[C@@]24OO3 [DHA, dihydroartemisinin, reference compound]
[2]
  RSA survival rate: ~8%
P. falciparum GB4
  EC50: 3.2 ± 1.2 nM
[3]
  EC50: 6.5 ± 1.4 nM
P. falciparum C2A
  EC50: 3.7 ± 2.4 nM
P. falciparum 3D7 [4]
  RSA effect on ring-stage parasites of 3D7: efficiently killed the ring-stage parasites
[5]
  EC50: 5.5 ± 1.1 nM
P. falciparum CP286
  EC50: 5.6 ± 2.4 nM

## Cn1cc(CNCC2CCN(c3ncc(C(=O)NO)cn3)CC2)c2ccccc21 [Quisinostat, reference compound]
P. yoelii
  clearing of P. yoelii blood-stage infections: remained effective in clearing P. yoelii blood-stage infections
[6]
  CL/F: 462 mL/min/kg
  Cmax: 88.7 ng/mL
  Tmax: 4.98 min
  V/F: 245 L/kg
[6]; during 8–12 h after administration
  plasma concentration: ~ 2.5 ng/mL
[6]; [12]
  AUC(0-inf): 180 ng·h/mL
  AUC(0-t): 157 ng·h/mL
  half-life: 368 min
[7]; 6-h treatment, washed, 1:40 dilution, 4 days culture
  parasitemia measured 4 days after 6-h treatment: substantial reduction in parasitemia
[7]; 10-100 nM, parasitemia immediately after treatment
  asexual growth of 3D7 after 12- and 24-h treatments: significantly inhibited the asexual growth of 3D7 parasites
[8]
  EC50 at 72 h: 48 nM
HepG2 cells; read-out: Cytotoxicity EC50, HepG2, 72 h, CellTiter-Glo
  EC50: 42 ± 10 nM
[9]
  EC50 at 72 h: 42 nM
293T cells; read-out: Cytotoxicity EC50, 293T, 72 h, CellTiter-Glo
  EC50: 48 ± 1 nM
[1]
  pan-acetylation levels of parasite histone H3: greatly increased the pan-acetylation levels of parasite histone H3
[10]
  T1/2 in liver microsomes: 13.31 min
[10]; mouse, liver microsomes, read-out: T1/2 in liver microsomes
  half-life at 1 µM: 13.3 min
P. falciparum 3D7 [11]
  EC50: 5.2 ± 0.7 nM
hSirt2
  IC50: > 10000 nM
P. falciparum Dd2; Plasmodium falciparum, DD2, 72 h, read-out: Antiplasmodial activity EC50, Dd2, 3-day SYBR Green I GIA, multidrug-resistant strain Dd2
  EC50: 7.1 nM
P. falciparum Dd2; read-out: Antiplasmodial activity EC50, Dd2, 3-day SYBR Green I GIA, multidrug-resistant strain Dd2
  EC50: 7.09 ± 0.01 nM

## COc1ccc2c(CN3CCC4(CCN(c5ncc(C(=O)NO)cn5)C4)C3)cn(C)c2c1.Cl (stereo not drawn) [JX21142]
[8]
  EC50 at 72 h: 975 ± 1 nM
HepG2 cells
  Selectivity index for HepG2 (EC50 HepG2/EC50 3D7): 72
[9]
  EC50 at 72 h: 1230 ± 102 nM
293T cells
  Selectivity index for 293T (EC50 293T/EC50 3D7): 90
P. falciparum 3D7 [11]; [13]
  EC50: 13.6 ± 4.2 nM
P. falciparum Dd2; [14]
  EC50: 3.4 ± 2.2 nM

## Cl.Cn1cc(CN2CC3(CCN(c4ncc(C(=O)NO)cn4)CC3)C2)c2ccccc21 [JX21014]
[8]
  EC50 at 72 h: 348 ± 24 nM
HepG2 cells
  Selectivity index for HepG2 (EC50 HepG2/EC50 3D7): 21
[9]
  EC50 at 72 h: 1130 ± 26 nM
293T cells
  Selectivity index for 293T (EC50 293T/EC50 3D7): 67
P. falciparum 3D7 [11]; [13]
  EC50: 16.9 ± 0.8 nM
P. falciparum Dd2; [14]
  EC50: 10.7 ± 0.2 nM

## Cl.Cn1c(CN2CCC3(CCN(c4ncc(C(=O)NO)cn4)C3)C2)cc2ccccc21 (stereo not drawn) [JX21123]
[8]
  EC50 at 72 h: 1250 ± 62 nM
HepG2 cells
  Selectivity index for HepG2 (EC50 HepG2/EC50 3D7): 202
[9]
  EC50 at 72 h: 1200 ± 156 nM
293T cells
  Selectivity index for 293T (EC50 293T/EC50 3D7): 193
P. falciparum 3D7 [11]; [13]
  EC50: 6.2 ± 1.3 nM
P. falciparum Dd2; [14]
  EC50: 7.2 ± 0.3 nM

## Cl.Cn1nc(CN2CCC3(CCN(c4ncc(C(=O)NO)cn4)C3)C2)c2ccccc21 (stereo not drawn) [JX21124]
[8]
  EC50 at 72 h: 1130 ± 168 nM
HepG2 cells
  Selectivity index for HepG2 (EC50 HepG2/EC50 3D7): 195
[9]
  EC50 at 72 h: 1330 ± 29 nM
293T cells
  Selectivity index for 293T (EC50 293T/EC50 3D7): 229
P. falciparum 3D7 [11]; [13]
  EC50: 5.8 ± 0.9 nM
P. falciparum Dd2; [14]
  EC50: 4.3 ± 0.5 nM
